The subject of assay [1] is patients who experience first psychotic episode. Nature of the assay: SANS (Scale for the Assessment of Negative Symptoms), adjuvant study. It counts as in vivo, human. The note with it: atypical antipsychotic drug+minocycline 200 mg/day vs +placebo; group x time p<0.01. The protocol:
(§1) The study was carried out in patients who experience first psychotic episode, and has followed the patient for a total duration of 6 months. As the study examines Minocycline as an adjuvant drug, the sample includes patients receiving one of the following atypical anti-psychotic drugs: Risperdal, Zyprexa, Geodon, Seroquel, and Leponex. […] Initial evaluation included the following clinical measures: • SCID (for reliability of diagnosis) • CGI (Clinical Global Impression) • PANSS (Positive and Negative Syndrome Scale for Schizophrenia) • SANS (Scale for the Assessment of Negative Symptoms) • Calgary Depression Scale for Schizophrenia • GAF • GRAF • Insight and Treatment Attitudes Questionnaire • QLS (Quality of Life Scale) • Multinomah Community Ability Scale • Extrapyramidal Side Effects Scale. Minocycline was given as an add-on therapy. […] Clinical status was evaluated by the aforementioned scales at the onset of the study, every week for the first 6 weeks, and then once a month for the rest of the study period. Cognitive capabilities were assessed by the neuropsychological battery of tests according to the following schedule: upon initiation of the study (referred to as visit 1 in FIGS. 5-8), 3 months (referred to as visit 2 in FIGS. 5-8), and 6 months (referred to as visit 3 in FIGS. 5-8) after the start of the study. […]

Assay [2] has as its system MK801 treated rats. Nature of the assay: Pre-Pulse Inhibition (PPI) paradigm, MK801 animal model. The format is in vivo, rat. The protocol:
Acoustic Startle Response (ASR) and Pre-Pulse Inhibition (PPI): Both experimental paradigms were performed in a room that was adjacent to the laboratory facilities and the animal stall and that was not used for other experiments. The animals were tested in squad of two with startle chambers counterbalanced across the different experimental groups. Startle response and prepulse inhibition were measured using two ventilated startle chambers (SR-LAB system, San Diego Instruments, San Diego, Calif.). Each chamber consisted of a Plexiglas cylinder resting on a platform inside a sound-attenuated, ventilated chamber. A high-frequency loudspeaker inside the chamber produced both a continuous broadband background noise of 70 dB and the various acoustic stimuli. Movement inside the tube was detected by a piezoelectric accelerometer below the frame. The amplitude of the whole body startle to an acoustic pulse was defined as the average of 100 one-msec accelerometer readings collected from pulse onset. These signals were then digitized and stored by a computer. Sound levels within each test chamber were measured routinely using a sound level meter (Radio Shack) to ensure consistent presentation. The SR-LAB calibration unit was used routinely to ensure consistent stabilimeter sensitivity between test chambers and over time (Swerdlow and Geyer, 1998, Schizophrenia Bulletin, 24(2), 285-301).
Fifteen minutes before the behavioral procedures conducted at the fourth day, the subject was injected i.p. with an 0.1 mg/kg dose of MK801 or saline, for a total volume of 1 ml per kg of body weight. Next, the subjects passed the three behavioral procedures, described in the following paragraphs.
ASR and PPI were measured using two startle chambers, with each chamber consisting of a Plexiglas cylinder resting on a platform inside a sound-attenuated, ventilated chamber (see also materials section). The animals were tested in pairs with startle chambers counterbalanced across the different experimental groups.
PPI of the startle response was used as a measure of sensorimotor gating, with the startle chambers used to assess the ability of prepulse stimuli to block the startle response. […]
Pre-Pulse Inhibition (PPI): Startle magnitude is expressed in all the procedures as arbitrary units. Percent PPI (% PPI) was calculated as the mean startle magnitude to stimulus-alone minus the mean startle magnitude to prepulse-stimulus trials, all divided by the mean stimulus-alone trials, and multiplied by 100. The overall mean % PPI was calculated for the four prepulse intensities (72, […], 80, 84 dB). Results were analyzed by two-way ANOVA with a between-subject measure of ‘group’ (difference the treatment groups) and ‘prepulse intensity’ (72, 76, 80, 84 dB).

The subject of assay [3] is patients who experience first psychotic episode. Description: Calgary Depression Scale for Schizophrenia, adjuvant study. It counts as in vivo, human. Particulars: atypical antipsychotic drug+minocycline 200 mg/day vs +placebo; p=0.099, n.s. The protocol: as §1
Assay [4] has the same test system. Description: CANTAB Spatial Recognition Memory (SRM), adjuvant study. The note with it: atypical antipsychotic drug+minocycline 200 mg/day vs +placebo; time x group p<0.01. It counts as in vivo, human. The protocol: The study was carried out in patients who experience first psychotic episode, and has followed the patient for a total duration of 6 months. As the study examines Minocycline as an adjuvant drug, the sample includes patients receiving one of the following atypical anti-psychotic drugs: Risperdal, Zyprexa, Geodon, Seroquel, and Leponex. […] In addition, the subjects were assessed by a battery of computerized neuropsychological tests (CANTAB—Cambridge Neuropsychological Test Automated Battery), measuring attention, memory, and planning. Memory was tested using spatial and pattern recognition and spatial span tasks of the CANTAB. Minocycline was given as an add-on therapy. Prior to randomization into minocycline/placebo adjuvant treatment, a preliminary (lead-in phase) screening phase of placebo treatment was undertaken: Placebo was given as an adjuvant to all patients for two weeks. […] Clinical status was evaluated by the aforementioned scales at the onset of the study, every week for the first 6 weeks, and then once a month for the rest of the study period. Cognitive capabilities were assessed by the neuropsychological battery of tests according to the following schedule: upon initiation of the study (referred to as visit 1 in FIGS. 5-8), 3 months (referred to as visit 2 in FIGS. 5-8), and 6 months (referred to as visit 3 in FIGS. 5-8) after the start of the study. […]

The source of these data is US20130190275A1, “COMBINED THERAPIES OF ANTIPSYCHOTIC DRUGS AND TETRACYCLINES IN THE TREATMENT OF PSYCHIATRIC DISORDERS” (MOR RESEARCH APPLICATIONS LTD., priority 2006, published 2013).

Turning to `CN(C)c1ccc(O)c2c1C[C@H]1C[C@H]3[C@H](N(C)C)C(O)=C(C(N)=O)C(=O)[C@@]3(O)C(O)=C1C2=O` [minocycline], the “total SANS score” value in assay [1] is reported as “greater improvement than the placebo group”. Besides, the “percent of PPI (% PPI)” value in assay [2] (drug+MK801 0.1 mg/kg i.p., minocycline 35 mg/kg x 3 days pretreatment, haloperidol 0.4 mg/kg i.p.) is “able to reverse the deficits caused by the MK801 treatment”; in assay [2] (minocycline alone (no MK801) vs saline), “no statistically significant differences”. The “Total Calgary Score” value in assay [3] is “tended to reach greater improvement”. In addition, the “SRM percent of correct responses” value in assay [4] is reported as “kept relatively steady scores”.
